Test results reported in patent US20220267258A1, “ROBENIDINE ANALOGS AS POTENT ANTIMALARIALS AGAINST DRUG-RESISTANT PLASMODIUM FALCIPARUM” (OREGON HEALTH & SCIENCE UNIVERSITY, priority 2021, published 2022).

Assays:
P. falciparum A6 = test: SYBR Green growth inhibition assay, P. falciparum A6; format: cell-based, Plasmodium falciparum; details: Plasmodium falciparum, 72 h, read-out: IC50 A6
Method: (§1) In addition to the drug-sensitive P. falciparum D6 strain, the aminoguanidines were assessed against three drug-resistant strains (Tables 1-3).
(§2) The following parasite strains were used in this study and obtained through BEI Resources, NIAID, NIH. […] The culture medium used was RPMI-1640, supplemented with 25 mM HEPES buffer, 25 mg/L gentamicin sulfate, 45 mg/L hypoxanthine, 10 mM glucose, 2 mM glutamine, and 0.5% Albumax II (complete medium).^43 Cultures were maintained in a standard low oxygen atmosphere (5% O2, 5% CO2, 90% N2) in an environmental chamber and incubated at 37° C. Cultures were sub-passaged every 3-4 days into a fresh culture flask containing complete media and erythrocytes.
(§3) The aminoguanidine series was assessed for in vitro antiplasmodial activity using the fluorescence-based SYBR Green assay described previously by Smilkstein and co-workers.^38 Compounds were evaluated in quadruplicate in flat-bottomed Costar clear 96-well plates (Model #3585). A two-fold serial dilution of each compound was performed across the columns of the test plates starting with 20 μM and ending with a final untreated column to serve as control wells. Asynchronous parasite infected erythrocytes in growth media were added to each well for a total volume of 100 μL, final hematocrit of 2%, and initial parasitemia of 0.2%. The commercial malaria drugs atovaquone and chloroquine were used as control drugs. Test plates were incubated for 72 hr at 37° C. in an environmental chamber with a controlled low oxygen atmosphere (5% O2, 5% CO2, 90% N2). After the incubation period, 100 μL SYBR Green I dye-detergent solution was added to each well, and the plates were incubated at ambient temperature and atmosphere in the dark for at least one hour. Fluorescence was read at 497 nm excitation and 520 nm emission bands using a Spectramax iD3 plate reader. Fluorescence readings were normalized with respect to the untreated control wells representing normal parasite growth and plotted against the logarithm of drug concentration.

P. falciparum Tm90-C2B = test: SYBR Green growth inhibition assay, P. falciparum Tm90-C2B; format: cell-based, Plasmodium falciparum; details: Plasmodium falciparum, TM90, 72 h, read-out: IC50 Tm90-C2B
Method: as §1, §2, §3

[1] = HepG2 cytotoxicity assay (resazurin); format: cell-based, human; details: human, HepG2 cells; HepG2, 24 hr drug, 24 hr recovery
Method: In this assay, HepG2 cells were incubated with test compounds for 24 hours, followed by a 24-hour recovery period and subsequent staining to evaluate for cytotoxic effects with resazurin. The ratio of the resulting HepG2 IC50 value to the P. falciparum D6 IC50 value can be considered an ‘in vitro therapeutic index,’ or IVTI.
Compounds were prepared as 10 mM stock solutions in DMSO. […] HepG2 cells were added to each well of flat bottom 96-well tissue culture plates at an initial density of 2×10^4 cells per well, and an initial volume of 160 μL complete medium per well. After an overnight incubation at 37° C. to adhere the cells to the culture plates, 40 μL drug solutions in complete medium were applied to each well at a final concentration range of 0 to 200 μM across each plate. Drugs were tested in triplicate or quadruplicate. The cells were incubated for 24 hours at 37° C. and 5% CO2 with the drug solutions, which were then aspirated and replaced with 200 μL per well of complete medium for an additional 24 hour incubation under the same conditions. To each well was added 20 μL of resazurin (Alamar Blue) in PBS buffer to a final concentration of 10 μM, and the plates were incubated for 3 hours. Fluorescence was measured at 560 nm excitation and 590 nm emission bands using a Spectramax iD3 plate reader. Fluorescence readings were normalized with respect to the untreated control wells and plotted against the logarithm of drug concentration.

P. falciparum Dd2 = test: SYBR Green growth inhibition assay, P. falciparum Dd2; format: cell-based, Plasmodium falciparum; details: Plasmodium falciparum, DD2, 72 h, read-out: IC50 Dd2
Method: as §1, §2, §3

P. falciparum strain D6 = test: SYBR Green growth inhibition assay, P. falciparum D6; format: cell-based, Plasmodium falciparum; details: Plasmodium falciparum, D6, Erythrocyte, 72 h, read-out: IC50 D6
Method: The in vitro activity of each compound in the aminoguanidine library was assessed against asynchronous cultures of Plasmodium falciparum parasites replicating within human erythrocytes (Tables 1-3). As the chemical development of robenidine was not discussed in its original publication in 1970^4 and limited structural information is available regarding its mechanism of action,^10 profiling was guided primarily by in vitro potency against the P. falciparum D6 strain cultured in human erythrocytes as described above.
as §2
as §3, with “The commercial malaria drugs atovaquone and chloroquine were used as control drugs.” left out

Structure (SMILES) | IC50 (P. falciparum A6) [nM] | IC50 (P. falciparum Tm90-C2B) [nM] | IC50 at 24 h [1] [nM] | IC50 (P. falciparum Dd2) [nM] | IC50 (P. falciparum strain D6) [nM]
N=C(N/N=C/c1ccccc1OC(F)(F)F)N/N=C/c1ccccc1OC(F)(F)F [Compound 14] | 391 | > 5000 | 156000 | 2330 | 1080
N=C(N/N=C/c1ccc(O)cc1)N/N=C/c1ccc(O)cc1 [Compound 25] | 278 | 286 | 39000 | 240 | 143
N#Cc1ccccc1/C=N/NC(=N)N/N=C/c1ccccc1C#N [Compound 20] | 969 | 1990 | 31000 | 2100 | 1020
N=C(N/N=C/c1cccc(OC(F)(F)F)c1)N/N=C/c1cccc(OC(F)(F)F)c1 [Compound 15] | 689 | 2990 | 61000 | 1570 | 670
CN(C)c1ccc(/C=N/NC(=N)N/N=C/c2ccc(N(C)C)cc2)cc1 [Compound 28] | 122 | 213 | 20000 | 264 | 118
N=C(N/N=C/c1ccccc1Br)N/N=C/c1ccccc1Br [Compound 7] | 876 | 974 | 94000 | 715 | 280
N=C(N/N=C/c1ccccc1)N/N=C/c1ccccc1F [Compound 38] | 833 | > 5000 | > 200000 | 2200 | 1030
N=C(N/N=C/c1ccc(Br)cc1)N/N=C/c1ccc(Br)cc1 [Compound 9] | 269 | 899 | 38000 | 876 | 277
N=C(N/N=C/c1ccccc1Cl)N/N=C/c1ccccc1Cl [Compound 5] | 348 | 1220 | > 200000 | 961 | 334
N=C(N/N=C/c1cccc(Br)c1)N/N=C/c1cccc(Br)c1 [Compound 8] | 502 | 1840 | 62000 | 1520 | 572
Cc1ccc(/C=N/NC(=N)N/N=C/c2ccc(C)cc2)cc1 [Compound 10] | > 5000 | 2530 | 43000 | 2430 | 905
CC#COc1ccc(/C=N/NC(=N)N/N=C/c2ccc(OC#CC)cc2)cc1 [Compound 32] | 153 | 376 | > 200000 | 199 | 102
N=C(N/N=C/c1ccc(C(F)(F)F)cc1)N/N=C/c1ccc(C(F)(F)F)cc1 [Compound 12] | 567 | 2740 | 40000 | 1540 | 614
N=C(N/N=C/c1ccc(-c2ccccc2)cc1)N/N=C/c1ccc(-c2ccccc2)cc1 [Compound 26] | 33 | 71 | > 200000 | 87 | 15
N=C(N/N=C/c1ccc(F)cc1)N/N=C/c1ccc(F)cc1 [Compound 4] | 369 | 4900 | 24000 | 3790 | 1020
COc1ccc(/C=N/NC(=N)N/N=C/c2ccc(OC)cc2)cc1 [Compound 11] | 289 | > 5000 | > 200000 | 1600 | 263
N=C(N/N=C/c1ccc(N2CCOCC2)cc1)N/N=C/c1ccc(N2CCOCC2)cc1 [Compound 33] | 116 | 295 | > 200000 | 329 | 131
N=C(N/N=C/c1ccccc1F)N/N=C/c1ccccc1F [Compound 2] | 1890 | > 5000 | > 200000 | 4590 | 2870
N=C(N/N=C/c1ccccc1)N/N=C/c1ccccc1 [Compound 24] | 581 | > 5000 | > 200000 | 4300 | 705
N=C(N/N=C/c1ccc(OC(F)F)cc1)N/N=C/c1ccc(OC(F)F)cc1 [Compound 18] | 87 | 193 | 19000 | 191 | 71
N=C(N/N=C/c1cccc(F)c1)N/N=C/c1cccc(F)c1 [Compound 3] | 426 | > 5000 | 49000 | > 5000 | 767
N=C(N/N=C/c1cccc(Cl)c1)N/N=C/c1cccc(Cl)c1 [Compound 6] | 237 | 664 | 35000 | 567 | 202
